# Where two headings read alike, the source gives them in different places.
# Key:
# Plk2 PBD = molecular target: T1, Plk2 PBD (Homo sapiens, UniProt Q9NYY3); assay: Fluorescence polarization specificity assay, Plk2 PBD; type: binding; settings: Plk2 PBD 130 nM; incubation with inhibitor 1 hr at 22 °C prior to addition of fluorophore-labeled peptide; read-out: apparent IC50
# T1 construct: human Plk2 amino acids 355-685; made in house; host or cells: E. coli Rosetta BL21 DE3
# T1 sequence (Q9NYY3 355-685): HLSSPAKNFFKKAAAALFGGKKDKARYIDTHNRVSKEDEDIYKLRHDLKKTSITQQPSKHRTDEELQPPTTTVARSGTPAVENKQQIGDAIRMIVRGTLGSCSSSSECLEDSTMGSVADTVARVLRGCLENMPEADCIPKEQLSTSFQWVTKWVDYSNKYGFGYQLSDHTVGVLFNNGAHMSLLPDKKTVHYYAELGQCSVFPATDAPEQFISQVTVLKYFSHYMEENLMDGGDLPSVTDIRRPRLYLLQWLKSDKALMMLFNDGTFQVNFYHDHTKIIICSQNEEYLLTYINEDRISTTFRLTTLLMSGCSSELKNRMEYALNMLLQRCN
# Text: (§1) DNA sequences coding for human Plk1 amino acids 326-603, human Plk2 amino acids 355-685, and human Plk3 amino acids 335-646 comprising the respective polo-box domains were amplified by PCR from plasmid DNA (Plk1) or placenta cDNA (Plk2, Plk3) and cloned into a modified pET28a (Plk1) or a modified pQE70 vector (Plk2 and Plk3). Similarly, nucleotides coding for the […] (FHA) of the kinase Chk2 (amino acids 1-225) and the WW domain of the proline isomerase Pin1 (amino acids 1-162) were amplified by PCR from HeLa S3 and placenta cDNA, respectively, and cloned into a modified pET28a vector. The design of expression plasmids coding for STAT1, STAT3, STATSb, and Lck has been described before and belongs to the knowledge of a skilled person. […] Wild-type and mutant PBD sequences were cloned into a modified pCS2 mammalian expression vector carrying a myc-tag. […]
# (§2) Diverse Chemical libraries consisting of 22461 small molecules were tested in a fluorescence polarization assay which analyzes binding between 5-carboxyfluorescein-GPMQST(P03H2)PLNG-OH (final concentration: 10 nM) and the Plk1 polo-box domain (final concentration: 65 nM). […]
# Chk2 FHA domain = molecular target: T2, Chk2 FHA domain (Homo sapiens, UniProt O96017); assay: Fluorescence polarization specificity assay, Chk2 FHA domain; type: binding; settings: Chk2 240 nM; incubation with inhibitor 1 hr at 22 °C prior to addition of fluorophore-labeled peptide; read-out: apparent IC50
# T2 construct: kinase Chk2 (amino acids 1-225); made in house; host or cells: E. coli Rosetta BL21 DE3
# T2 sequence (O96017 1-225): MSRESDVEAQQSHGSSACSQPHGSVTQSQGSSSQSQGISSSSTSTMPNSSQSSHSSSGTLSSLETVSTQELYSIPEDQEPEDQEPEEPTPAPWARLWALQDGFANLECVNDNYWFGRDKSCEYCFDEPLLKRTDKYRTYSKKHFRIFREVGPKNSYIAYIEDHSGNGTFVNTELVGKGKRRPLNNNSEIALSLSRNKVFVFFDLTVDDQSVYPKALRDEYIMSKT
# Text: as §1, §2
# Pin1 WW domain = molecular target: T3, Pin1 WW domain (Homo sapiens, UniProt Q13526); assay: Fluorescence polarization specificity assay, Pin1 WW domain; type: binding; settings: Pin1 1000 nM; incubation with inhibitor 1 hr at 22 °C prior to addition of fluorophore-labeled peptide; read-out: apparent IC50
# T3 construct: proline isomerase Pin1 (amino acids 1-162); made in house; host or cells: E. coli Rosetta BL21 DE3
# T3 sequence (Q13526 1-162): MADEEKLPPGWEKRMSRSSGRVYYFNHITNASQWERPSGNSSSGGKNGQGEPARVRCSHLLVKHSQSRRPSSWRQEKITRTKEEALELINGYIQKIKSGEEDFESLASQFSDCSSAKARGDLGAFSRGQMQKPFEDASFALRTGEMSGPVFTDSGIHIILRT
# Text: as §1, §2
# STAT1 SH2 domain = STAT1 SH2 domain (Homo sapiens, UniProt P42224); assay: Fluorescence polarization specificity assay, STAT1 SH2 domain; type: binding
# STAT1 SH2 domain, sequence (P42224 132-713): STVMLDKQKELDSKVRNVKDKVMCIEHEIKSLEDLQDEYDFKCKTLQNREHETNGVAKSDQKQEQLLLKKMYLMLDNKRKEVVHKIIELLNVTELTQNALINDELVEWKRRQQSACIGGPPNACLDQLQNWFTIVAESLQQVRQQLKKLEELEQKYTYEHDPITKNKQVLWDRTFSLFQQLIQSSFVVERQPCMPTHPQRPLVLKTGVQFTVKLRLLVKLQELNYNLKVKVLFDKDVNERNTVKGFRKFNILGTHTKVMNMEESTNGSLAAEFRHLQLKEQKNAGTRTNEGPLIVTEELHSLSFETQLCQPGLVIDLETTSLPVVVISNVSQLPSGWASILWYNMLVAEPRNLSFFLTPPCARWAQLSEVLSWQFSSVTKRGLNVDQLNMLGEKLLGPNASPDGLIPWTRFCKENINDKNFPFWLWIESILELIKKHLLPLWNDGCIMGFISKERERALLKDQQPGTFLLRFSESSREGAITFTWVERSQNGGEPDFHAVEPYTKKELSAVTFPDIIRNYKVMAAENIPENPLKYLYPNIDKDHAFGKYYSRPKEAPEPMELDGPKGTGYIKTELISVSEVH
# Text: as §1, §2
# STAT3 SH2 domain = molecular target: T4, STAT3 SH2 domain (Homo sapiens, UniProt P40763); assay: Fluorescence polarization specificity assay, STAT3 SH2 domain; type: binding; settings: STAT3 160 nM; incubation with inhibitor 1 hr at 22 °C prior to addition of fluorophore-labeled peptide; read-out: apparent IC50
# T4 construct: made in house
# T4 sequence (P40763 127-722 limits assumed): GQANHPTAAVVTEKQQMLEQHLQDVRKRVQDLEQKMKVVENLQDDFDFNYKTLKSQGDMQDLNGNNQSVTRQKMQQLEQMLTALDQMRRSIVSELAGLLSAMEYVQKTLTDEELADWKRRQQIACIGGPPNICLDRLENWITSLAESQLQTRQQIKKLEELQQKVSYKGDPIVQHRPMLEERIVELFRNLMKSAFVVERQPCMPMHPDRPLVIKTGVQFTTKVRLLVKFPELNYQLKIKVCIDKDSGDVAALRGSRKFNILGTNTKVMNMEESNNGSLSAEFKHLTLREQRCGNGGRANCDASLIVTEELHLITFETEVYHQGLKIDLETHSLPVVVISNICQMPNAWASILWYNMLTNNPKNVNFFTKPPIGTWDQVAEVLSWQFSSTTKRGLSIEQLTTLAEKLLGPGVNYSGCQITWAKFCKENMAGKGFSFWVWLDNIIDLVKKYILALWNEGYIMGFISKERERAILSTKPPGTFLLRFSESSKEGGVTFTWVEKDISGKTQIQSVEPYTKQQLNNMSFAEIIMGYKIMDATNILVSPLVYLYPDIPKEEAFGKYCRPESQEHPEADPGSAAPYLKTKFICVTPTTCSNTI
# Text: as §1, §2
# STAT5 SH2 domain = molecular target: T5, STAT5 SH2 domain (Homo sapiens, UniProt P51692); assay: Fluorescence polarization specificity assay, STAT5 SH2 domain; type: binding; settings: STAT5b 110 nM, incubation with inhibitor 1 hr at 22 °C prior to addition of fluorophore-labeled peptide, read-out: apparent IC50
# T5 construct: made in house
# T5 sequence (P51692 136-703 limits assumed): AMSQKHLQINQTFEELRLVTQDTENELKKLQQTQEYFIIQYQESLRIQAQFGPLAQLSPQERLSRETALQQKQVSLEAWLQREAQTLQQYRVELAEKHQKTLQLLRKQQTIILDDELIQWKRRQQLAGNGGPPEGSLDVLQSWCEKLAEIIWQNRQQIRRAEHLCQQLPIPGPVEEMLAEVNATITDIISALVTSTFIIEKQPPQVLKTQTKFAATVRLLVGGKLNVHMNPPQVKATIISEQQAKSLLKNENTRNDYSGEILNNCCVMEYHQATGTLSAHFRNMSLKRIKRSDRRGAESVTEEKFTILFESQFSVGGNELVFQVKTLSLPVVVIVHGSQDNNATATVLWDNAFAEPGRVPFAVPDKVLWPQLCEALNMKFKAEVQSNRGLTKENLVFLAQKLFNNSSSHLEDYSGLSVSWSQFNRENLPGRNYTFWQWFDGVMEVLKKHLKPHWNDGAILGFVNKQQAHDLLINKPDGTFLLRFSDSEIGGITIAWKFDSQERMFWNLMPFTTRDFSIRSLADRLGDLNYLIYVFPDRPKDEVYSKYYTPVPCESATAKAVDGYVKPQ
# Text: as §1, §2
# Lck SH2 domain = Lck SH2 domain (Homo sapiens, UniProt P06239); assay: Fluorescence polarization specificity assay, Lck SH2 domain; type: binding
# Lck SH2 domain, sequence (P06239 127-224): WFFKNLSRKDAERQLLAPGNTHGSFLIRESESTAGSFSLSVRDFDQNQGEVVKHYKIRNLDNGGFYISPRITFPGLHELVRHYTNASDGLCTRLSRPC
# Text: as §1, §2
# HeLa cells = assay: Mitotic arrest / cell cycle analysis in synchronized HeLa cells (Western blot, flow cytometry); type: cell-based; settings: for mitotic arrest in HeLa cells: HeLa cells synchronized by thymidine block, released into medium containing compound, Figs. 5A-5C
# Text: Figure 1A/B Comparative IC50 inhibition curves with preferred compounds [1] (poloxin) and [14] (thymoquinone, TQ) versus Plk1, Plk2, Plk3, Chk2, Pin1, Stat1, Stat3, Stat5 and Lck. Figure 2 Cellular effects of poloxin and thymoquinone (TQ): Mitotic indices of HeLa cells 14 hrs after release from G1/S block. Figure 3 Distribution of mitotic phases and chromosome congression defects within the metaphase population in the presence of poloxin and thymoquinone (TQ). […]. […] Unsynchronized cells (control), cells synchronized with nocodazol (Noc) or thymidine (Thym), or cells released from thymidine block in the medium containing only DMSO (DMSO) were analyzed for comparison. Figure 5B Analysis of cell cycle distribution by fluorescence-activated flow cytometry. Cells were treated as in 5A. A representative example is shown. Figure 5C Quantification of the cell cycle analysis as shown in 5B (n=3). […]. […] Figure 6B Overexpression of PBD wild-type (wt), but not of the triple mutant PBD FAA, induces mitotic arrest in HeLa cells.
# HeLa cells were maintained in Dulbecco's Modified Eagle-Medium (High Glucose) supplemented with 2 mM L-glutamine, 1 mM sodium pyruvate, 10% foetal calf serum, 100 U/mL penicillin, and 100 µg/mL streptomycin (GIBCO and PAA). For the Western blot analysis Fig. 5A, HeLa cells were arrested at the G1/S boundary by thymidine block, and released into thymidine-free medium containing the indicated concentration of compounds at a final DMSO concentration of 0.5%. After 7 hours, medium was replaced with fresh medium which also contained the indicated concentration of compound. […]
# For the determination of mitotic indices shown in Fig. 6A, the number of mitotic cells within a population of 200-300 cells was counted. For the determination of the mitotic phase distribution shown in Fig. 6B, populations of approximately 50 mitotic cells were analyzed. […] The DNA content of 30000 cells was determined with a FACScan flow cytometer (BD Biosciences). The data were analyzed with cell cycle analysis Software MODFIT LT 2.0 (Verity Software House). […]
# Plk3 PBD = molecular target: T6, Plk3 PBD (Homo sapiens, UniProt Q9H4B4); assay: Fluorescence polarization specificity assay, Plk3 PBD; type: binding; settings: Plk3 PBD 1875 nM; incubation with inhibitor 1 hr at 22 °C prior to addition of fluorophore-labeled peptide; read-out: apparent IC50
# T6 construct: human Plk3 amino acids 335-646; made in house; host or cells: E. coli Rosetta BL21 DE3
# T6 sequence (Q9H4B4 335-646): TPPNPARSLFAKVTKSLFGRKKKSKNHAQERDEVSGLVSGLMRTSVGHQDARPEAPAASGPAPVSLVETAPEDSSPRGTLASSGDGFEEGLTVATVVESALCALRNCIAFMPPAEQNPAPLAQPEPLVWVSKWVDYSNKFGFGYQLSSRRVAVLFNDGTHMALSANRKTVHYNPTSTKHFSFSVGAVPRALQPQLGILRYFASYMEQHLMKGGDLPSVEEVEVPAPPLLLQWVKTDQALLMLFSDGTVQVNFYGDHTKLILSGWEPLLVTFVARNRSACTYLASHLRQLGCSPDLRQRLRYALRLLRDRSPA
# Experimental: Purified proteins were aliquoted, snap-frozen in liquid nitrogen, and stored at -80°C before use. Binding curve experiments were done for each protein batch before inhibition experiments were started.
# The final concentration of buffer components used was: 10 mM Tris, pH 8.0, 50 mM NaCl, 1 mM EDTA, 0.1 % Nonidet P-40, and 10% DMSO. The Plk1 PBD was incubated with compounds for 60 min prior to addition of the fluoropeptide. Screening was performed at room temperature. The following fluorophore-labeled peptides were used for specificity assays: • Plk2: 5-carboxyfluorescein-GPMQTST(PO3H2)PKNG-OH; • Plk3: 5-carboxyfluorescein-GPLATST(PO3H2)PKNG-OH; • Chk2: 5-carboxyfluorescein-GHFDT(PO3H2)YLIRR-OH; • Pin 1: 5-carboxyfluorescein-GWFYS(PO3H2)PRLKK-OH; • STAT1: 5-carboxyfluorescein-GY(PO3H2)DKPHVL-OH; • STAT3: 5-carboxyfluorescein-GY(PO3H2)LPQTV-NH2; • STAT5b: 5-carboxyfluorescein-GY(PO3H2)L VLDKW-OH;Lck:5-carboxyfluorescein-GY(P03H2)EEIP-OH.
# Fluorescein-labeled peptides were >95% pure. […] Inhibition curves were fitted using SigmaPlot (SPSS Science Software GmbH).
SMILES,IC50 (Plk2 PBD) [µM],IC50 (Chk2 FHA domain) [µM],IC50 (Pin1 WW domain) [µM],"IC50 (STAT1 SH2 domain; STAT1 120 nM, incubation with inhibitor 1 hr at 22 °C prior to addition of fluorophore-labeled peptide, read-out: apparent IC50) [µM]",IC50 (STAT3 SH2 domain) [µM],IC50 (STAT5 SH2 domain; value in mM) [mM],"IC50 (Lck SH2 domain; Lck 40 nM, incubation with inhibitor 1 hr at 22 °C prior to addition of fluorophore-labeled peptide, read-out: apparent IC50) [µM]",mitotic arrest in HeLa cells (HeLa cells),IC50 (Plk3 PBD) [µM],IC50 (STAT1 SH2 domain) [µM],IC50 (STAT5 SH2 domain) [mM],IC50 (Lck SH2 domain) [µM],"toxic side effects in cell cycle analysis (HeLa cells; 25 µM, HeLa cells, flow cytometry, quantification of cell cycle profile unfeasible (Fig. 5C))"
CC1=CC(=O)C(C(C)C)=CC1=NOC(=O)c1ccccc1C [Poloxin],18.7 ± 1.8,> 330,> 215,> 555,> 285,> 1,> 5000,induce mitotic arrest,,,,,
"CC1=CC(=O)C(C(C)C)=CC1=O [Thymoquinone, thymoquinone]",1.9 ± 0.1,3.9 ± 0.6,20.4 ± 0.9,,10.9 ± 0.2,,,induce mitotic arrest,22.4 ± 0.8,> 5000,> 0.24,> 5000,toxic side effects

# Reference: patent publication EP2065039A1, “Selective inhibition of Polo-like kinase 1” (Max-Planck-Gesellschaft zur Förderung der Wissenschaften …, priority 2007, dated 2009)
